Assay results published in patent US11261425B2, “Method for inducing differentiation of pluripotent stem cells into neural precursor cells” (Kyoto University, priority 2009, dated 2022).

Experiments:
Format in all cases: cell-based, Human
iPS cells (G4) = experiment: Differentiation of iPS cells into neural precursor cells on PA6 feeder cells (SDIA method), immunostaining; conditions: day 14, PA6 feeder cells; for Nestin and Oct3/4 immunostaining of colonies: 2 μM Dorsomorphin and/or 10 μM SB431542
Experimental: Human ES cells (KhES-1, KhES-2, and KhES-3) from the Institute for Frontier Medical Sciences, Kyoto University were provided, and they were then cultured by the known method (Suemori H, et al. Biochem Biophys Res Commun. 345: 926-32, 2006). Human iPS cells (G1, G4, B6, and B7) were provided by Dr. Yamanaka of Kyoto University and then cultured by the known method (Takahashi K, et al. Cell. 131: 861-72, 2007 and Nakagawa M, et al. Nat Biotechnol. 26: 101-6, 2008). PA6 cells (RIKEN BRC Cell Bank) were seeded on a gelatin-coated dish and then cultured using MEM alpha containing 10% FBS. Upon induction of differentiation, cells were cultured for at least one day, confirmed to be confluent, and then used as feeder cells. Human iPS cells (404C2) was established by introducing reprogramming factors (OCT3/4, SOX2, KLF4, L-MYC, LIN28, and shRNA for p53) into human fibroblast using a vector containg EBNA-1 and oriP (U.S. 61/232,402 and U.S. 61/307,306), then cultured by same method of other human iPS cells.
ES cells or iPS cells were cultured using STO cells as feeder cells. One day before the initiation of differentiation induction, 10 μM ROCK inhibitor (Y27632) was added into a medium. CTK dissociation solution (0.25% Trypsin, 1 mg/ml Collagenase and KSR 20%, and 1 mM CaCl2) was added at 500 μl/10 cm dish, followed by 3 to 5 minutes of incubation at 37° C. The dish was gently tapped to remove feeder cells. After washing once with PBS, the CTK dissociation solution was added again, followed by 10-15 minutes of incubation at 37° C. ES cells or iPS cells detached from the dish were suspended in 5 ml of differentiation medium (DMEM/Ham's F12 containing 5% knockout serum replacement (KSR), 2 mM L-glutamine, non-essential amino acids, and 1 μM 2-mercaptoethanol (2-ME)). After centrifugation, supernatants were removed. Again, the cells were suspended in 1 ml of the differentiation medium and then separated from each other by pipetting, so as to result in small aggregates (10-20 cells/clump).
The obtained small aggregates were seeded on dishes having PA6 as feeder cells at concentrations ranging from 2500 to 5000 cells/cm^2. As a medium, a differentiation medium containing 2 μM Dorsomorphin (Sigma) and/or 10 μM SB431542 (Sigma) and/or 300 ng/ml Noggin (HZ-1026: HumanZyme) or 2 μl/well DMSO was used. 10 μM Y27632 was added only in the initial culture. Medium exchange was not performed until day 7, and it was then performed once every 3 to 4 days.
On day 14 after differentiation induction, cells were fixed with 4% PFA for 30 minutes at 4° C. and then immunostained in PBS with each antibody listed in Table 1.

[1] = tested on: KhES-1, KhES-2, KhES-3, G1, G4, B6, and B7; experiment: SDIA method, colony counts per well in 7 ES/iPS cell lines; conditions: day 14, 7 cell lines; for Number of colonies per well compared with control group or Noggin group: n=28
Experimental: When at least one positive cell could be confirmed within a colony, such colony was counted as a positive colony. […] Biochem Biophys Res Commun. 345: 926-32, 2006). Human iPS cells (G1, G4, B6, and B7) were provided by Dr. Yamanaka of Kyoto University and then cultured by the known method (Takahashi K, et al. Cell. 131: 861-72, 2007 and Nakagawa M, et al. Nat Biotechnol. 26: 101-6, 2008). PA6 cells (RIKEN BRC Cell Bank) were seeded on a gelatin-coated dish and then cultured using MEM alpha containing 10% FBS. Upon induction of differentiation, cells were cultured for at least one day, confirmed to be confluent, and then used as feeder cells. […] ES cells or iPS cells were cultured using STO cells as feeder cells. One day before the initiation of differentiation induction, 10 μM ROCK inhibitor (Y27632) was added into a medium. […] The dish was gently tapped to remove feeder cells. After washing once with PBS, the CTK dissociation solution was added again, followed by 10-15 minutes of incubation at 37° C. ES cells or iPS cells detached from the dish were suspended in 5 ml of differentiation medium (DMEM/Ham's F12 containing 5% knockout serum replacement (KSR), 2 mM L-glutamine, non-essential amino acids, and 1 μM 2-mercaptoethanol (2-ME)). After centrifugation, supernatants were removed. Again, the cells were suspended in 1 ml of the differentiation medium and then separated from each other by pipetting, so as to result in small aggregates (10-20 cells/clump). The obtained small aggregates were seeded on dishes having PA6 as feeder cells at concentrations ranging from 2500 to 5000 cells/cm^2. As a medium, a differentiation medium containing 2 μM Dorsomorphin (Sigma) and/or 10 μM SB431542 (Sigma) and/or 300 ng/ml Noggin (HZ-1026: HumanZyme) or 2 μl/well DMSO was used. 10 μM Y27632 was added only in the initial culture. Medium exchange was not performed until day 7, and it was then performed once every 3 to 4 days. On day 14 after differentiation induction, cells were fixed with 4% PFA for 30 minutes at 4° C. and then immunostained in PBS with each antibody listed in Table 1. […]

KhES-5 cells = experiment: Optimal concentration of LDN-193189 with SB431542 (SDIA method), KhES-5; conditions: day 14, with SB431542, PA6 cells
Experimental: Differentiation was induced by co-culturing an ES cell line (Kh-ES5) with PA6 cells according to the SDIA method, then culturing the cells in a medium supplemented with 5-500 nM LDN-193189 and SB431542.
On one day before the initiation of differentiation induction, CTK dissociation solution (0.25% Trypsin, 1 mg/ml Collagenase and KSR 20%, and 1 mM CaCl2) was added to ES cells (KhES-1, KhES-4, and KhES-5), colonies were dissociated. ES cells detached from the dish were subjected to removal of MEF on gelatin coating, suspended in a differentiation medium (DMEM/Ham's F12 containing 5% knockout serum replacement (KSR), 2 mM L-glutamine, non-essential amino acids, and 1 μM 2-mercaptoethanol (2-ME)) for 1 hour, and then separated by pipetting so as to result in small aggregates (10-20 cells/clump). The obtained small aggregates were seeded on PA6 at a concentration ranging from 2500 to 5000 cells/cm^2. On day 4 of culture, the medium was exchanged with a differentiation medium supplemented with 10 μM SB431542 and 5-1,000 nM LDN-193189. Three days later, the medium was exchanged with a differentiation medium without SB431542 and LDN-193189. Thereafter, medium exchanges with such a differentiation medium without SB431542 and LDN-193189 were performed at 2- to 3-day intervals. […]

[2] = tested on: KhES-1 cell line and KhES-4 cell line; experiment: Optimal concentration of LDN-193189 with SB431542 (SDIA method), KhES-1 and KhES-4; conditions: day 14, with SB431542, PA6 cells
Experimental: On one day before the initiation of differentiation induction, CTK dissociation solution (0.25% Trypsin, 1 mg/ml Collagenase and KSR 20%, and 1 mM CaCl2) was added to ES cells (KhES-1, KhES-4, and KhES-5), colonies were dissociated. ES cells detached from the dish were subjected to removal of MEF on gelatin coating, suspended in a differentiation medium (DMEM/Ham's F12 containing 5% knockout serum replacement (KSR), 2 mM L-glutamine, non-essential amino acids, and 1 μM 2-mercaptoethanol (2-ME)) for 1 hour, and then separated by pipetting so as to result in small aggregates (10-20 cells/clump). The obtained small aggregates were seeded on PA6 at a concentration ranging from 2500 to 5000 cells/cm^2. On day 4 of culture, the medium was exchanged with a differentiation medium supplemented with 10 μM SB431542 and 5-1,000 nM LDN-193189. Three days later, the medium was exchanged with a differentiation medium without SB431542 and LDN-193189. Thereafter, medium exchanges with such a differentiation medium without SB431542 and LDN-193189 were performed at 2- to 3-day intervals.
Human ES cells (KhES-1, KhES-4, and KhES-5) were subjected to differentiation induction performed by a stromal cell-derived inducing activity method (SDIA method) using LDN-193189 at a concentration ranging from 5 nM to 1000 nM, in order to determine an optimal concentration of LDN-193189.

Structure (SMILES) | Immunostaining for undifferentiation markers Nanog or SSEA3 and neural markers Pax6 or PSA-NCAM (iPS cells (G4)) | Nestin and Oct3/4 immunostaining of colonies (iPS cells (G4)) | Number of colonies per well compared with control group or Noggin group [1] | Concentration of LDN-193189 at which differentiation into neural precursor cells was induced relatively successfully (Nestin staining) (KhES-5 cells) | Increase of effect at LDN-193189 concentration higher than 50 nM (KhES-5 cells) | Concentration of LDN-193189 at which cells were stained to the highest degree with Pax6 [2] | Elimination of undifferentiated cells (Nestin-positive vs Oct3/4-positive colonies) [1]
c1cc(-c2cnn3cc(-c4ccc(OCCN5CCCCC5)cc4)cnc23)ccn1 [Dorsomorphin, 6-[4-(2-piperidin-1-yl-ethoxy)phenyl]-3-pyridin-4-yl-pyrazolo[1,5-a]pyrimidine] | undifferentiated cells and neural precursor cells coexisted | colonies positive for both Nestin and Oct3/4 were confirmed | significantly higher |  |  |  | 
c1ccc2c(-c3cnn4cc(-c5ccc(N6CCNCC6)cc5)cnc34)ccnc2c1 [LDN-193189, 4-(6-(4-(piperazin-1-yl)phenyl)pyrazolo[1,5-a]pyrimidin-3-yl)quinoline] |  |  |  | ≥ 50 nM | not observed that the effect was increased | 20 nM | 
NC(=O)c1ccc(-c2nc(-c3ccc4c(c3)OCO4)c(-c3ccccn3)[nH]2)cc1 [SB431542, 4-[4-(1,3-benzodioxol-5-yl)-5-(2-pyridinyl)-1H-imidazol-2-yl]benzamide] | neural precursor cells appeared in aggregated cell populations | aggregated cell populations were positive for Nestin | significantly higher |  |  |  | effective in elimination of undifferentiated cells
